1 molecule from patent US6710075B2, “Therapeutic compounds and methods” (The Government of the State of Sarawak, Malaysia, priority 2000, dated 2004) can be followed below.

Common to all, as to type: cell-based, human
The subject of experiment [1] is Intercellular Adhesion Molecule-1 (ICAM-1). Description: IL-1-induced ICAM-1 surface expression by A549 cells (Delfia). The conditions noted are these: 24 hours, read-out: IC50 ICAM-1 Production. From the text:
(§1) (a) Compounds A and B were identified from a bark sample of Aglaia leptantha through their ability to inhibit production of Tumour Necrosis Factor-α (TNF-α) by THP-1 human promonocytic leukemia cells (Tsuchiya, et al, Int. J. Cancer, 1980, 26(2):171-6) activated with lipopolysaccharide (LPS). Table 4 summarises the results comparing the activity of Compounds A and B for inhibition of TNF-α production to their effects on general cell metabolism measured using WST-1 reduction, DNA synthesis and protein synthesis assays for THP-1 cells. […] For comparison, the effects of Compounds A and B on A549 lung epithelial carcinoma cells (Leiber et al, Int. J. Cancer, 1976, 17(1)-62-70) were also measured and the data is also included in Table 4.

Experiment [2] has as its system A549 cells. The experiment in a line: DNA content analysis (cell cycle and viability) of A549 cells, 6 days. Particulars: A549, 10 nM. How it is done:
A549 cells were cultured for 6 days with the indicated concentration of Compound A or 1 μM paclitaxel then collected and fixed in 70% ethanol prior to staining with propidium iodide and DNA content determined by flow cytometry. The numbers indicate the % of cells in the various cell cycle phases relative to all cells with ≧2N DNA content and also the % dead cells (ie. subdiploid≦2N cells) to the left of the marker that arose during the culture period.
To help identify a potential mechanism for the effects of Compound A, DNA content analysis was performed to determine where in the cell cycle it exerted its effect (FIG. 4). […] This contrasts to the effects of paclitaxel a drug known to act selectively at the G2/M phases of the cell cycle (FIG. 4). As the concentration of Compound A was increased and its cytotoxic effects became evident the proportion of cells in the S and G2/M phases decreased with a corresponding rise in cells in G0/G1 phases. […] Thus, compared to THP-1 cells (see FIG. 2) higher concentrations of Compound A are required to inhibit progression through the G0/G1 phases of the cell cycle in A549 cells.

Experiment [3] relates to Tumour Necrosis Factor-α (TNF-α). Description: Inhibition of TNF-α production by LPS-activated THP-1 cells (sandwich ELISA). The conditions noted are these: 18 hours.
Excerpt: as §1
A general note: ELISA stands for enzyme-linked immunosorbent assay.

Experiment [4] has as its system A549 cells. Description: Relative cell size by forward light scatter (flow cytometry). Particulars: for % increase in mean cell volume: six days. The method, then: It is well known that cell proliferation and cell growth reflected as increased mass of individual cells are biochemically separable processes (Pardee, Science, 1989, 246:603-8). Although at certain concentrations Compound A can inhibit cell proliferation without overt cytotoxicity it was also evaluated whether Compound A also affected cell growth. For these experiments A549 cells were treated with various non-cytotoxic doses of Compound A up to 10 nM and the relative cell size determined after 6 days of culture by measuring forward light scatter using a flow cytometer. […] This occurred only at concentrations which are cytostatic for this cell type.
On the technique in general: Flow cytometry measures light scatter and fluorescence of single cells or particles in a stream.

Molecules are shown by their SMILES.

As a reminder, the IC50 is the midpoint of a concentration-inhibition curve. Turning to `COC(=O)[C@H]1[C@@H](O)[C@@]2(O)c3c(OC)cc(OC4OC(C(O)CO)COC4OC)cc3O[C@@]2(c2ccc(OC)cc2)[C@@H]1c1ccccc1` (single isomer, unassigned) [Compound A], the IC50 turned out to be 2000 nM in experiment [1] and 60 nM in experiment [3]. Besides, the cell cycle distribution result with A549 cells [2] is recorded as “a minor decline in the proportion of cells in the G0/G1 phases of the cell cycle with a concomitant increase in cells in the G2/M phases”. Moreover, the “% increase in mean cell volume” value is on record as 10.4% in the experiment with A549 cells [4] (A549, 2.5 nM); 10.7% in the experiment with A549 cells [4] (A549, 5.0 nM); 22.4% in the experiment with A549 cells [4] (A549, 10.0 nM). The “increase in the mean forward scatter” value in the experiment with A549 cells [4] (A549, non-cytotoxic doses up to 10 nM, 6 days) was “over 20%”.
